Here are results for 7 compounds from US7622634B2 (priority 2001, dated 2009).

For data set [1], the system named is HmPDR1. As to the kind of experiment: Quantitative RT-PCR of HmPDR1 expression in hairy roots. The class given is cell-based, Hyoscyamus muticus. Conditions: 1 mM CdCl2, H2O as a control. Here is the method: FIG. 3: HmPDR1 expression is induced by CdCl2. Quantitative RT-PCR analysis of HmPDR1 in total RNA from H. muticus hairy roots treated with 1 mM CdCl2 or H2O as a control. Ethidium bromide-stained rRNA is used as a control. The fold increase in the ratio of HmPDR1 transcript to rRNA fluorescence, relative to the value at time point zero, is given below the panels. Time after elicitation is indicated in hours.
To confirm the postulated relationship between the expression of ABC transporter genes and the CdCl2 induced release of alkaloids we performed an expression analysis of the HmPDR1 gene in CdCl2 treated Hyoscyamus hairy roots (FIG. 3).

For data set [2], the target named is Pdr5p (Saccharomyces cerevisiae, UniProt P33302). Conditions: Kolaczkowski et al. 1996, 1998; cited from earlier work.
Chain of Pdr5p (P33302 whole entry): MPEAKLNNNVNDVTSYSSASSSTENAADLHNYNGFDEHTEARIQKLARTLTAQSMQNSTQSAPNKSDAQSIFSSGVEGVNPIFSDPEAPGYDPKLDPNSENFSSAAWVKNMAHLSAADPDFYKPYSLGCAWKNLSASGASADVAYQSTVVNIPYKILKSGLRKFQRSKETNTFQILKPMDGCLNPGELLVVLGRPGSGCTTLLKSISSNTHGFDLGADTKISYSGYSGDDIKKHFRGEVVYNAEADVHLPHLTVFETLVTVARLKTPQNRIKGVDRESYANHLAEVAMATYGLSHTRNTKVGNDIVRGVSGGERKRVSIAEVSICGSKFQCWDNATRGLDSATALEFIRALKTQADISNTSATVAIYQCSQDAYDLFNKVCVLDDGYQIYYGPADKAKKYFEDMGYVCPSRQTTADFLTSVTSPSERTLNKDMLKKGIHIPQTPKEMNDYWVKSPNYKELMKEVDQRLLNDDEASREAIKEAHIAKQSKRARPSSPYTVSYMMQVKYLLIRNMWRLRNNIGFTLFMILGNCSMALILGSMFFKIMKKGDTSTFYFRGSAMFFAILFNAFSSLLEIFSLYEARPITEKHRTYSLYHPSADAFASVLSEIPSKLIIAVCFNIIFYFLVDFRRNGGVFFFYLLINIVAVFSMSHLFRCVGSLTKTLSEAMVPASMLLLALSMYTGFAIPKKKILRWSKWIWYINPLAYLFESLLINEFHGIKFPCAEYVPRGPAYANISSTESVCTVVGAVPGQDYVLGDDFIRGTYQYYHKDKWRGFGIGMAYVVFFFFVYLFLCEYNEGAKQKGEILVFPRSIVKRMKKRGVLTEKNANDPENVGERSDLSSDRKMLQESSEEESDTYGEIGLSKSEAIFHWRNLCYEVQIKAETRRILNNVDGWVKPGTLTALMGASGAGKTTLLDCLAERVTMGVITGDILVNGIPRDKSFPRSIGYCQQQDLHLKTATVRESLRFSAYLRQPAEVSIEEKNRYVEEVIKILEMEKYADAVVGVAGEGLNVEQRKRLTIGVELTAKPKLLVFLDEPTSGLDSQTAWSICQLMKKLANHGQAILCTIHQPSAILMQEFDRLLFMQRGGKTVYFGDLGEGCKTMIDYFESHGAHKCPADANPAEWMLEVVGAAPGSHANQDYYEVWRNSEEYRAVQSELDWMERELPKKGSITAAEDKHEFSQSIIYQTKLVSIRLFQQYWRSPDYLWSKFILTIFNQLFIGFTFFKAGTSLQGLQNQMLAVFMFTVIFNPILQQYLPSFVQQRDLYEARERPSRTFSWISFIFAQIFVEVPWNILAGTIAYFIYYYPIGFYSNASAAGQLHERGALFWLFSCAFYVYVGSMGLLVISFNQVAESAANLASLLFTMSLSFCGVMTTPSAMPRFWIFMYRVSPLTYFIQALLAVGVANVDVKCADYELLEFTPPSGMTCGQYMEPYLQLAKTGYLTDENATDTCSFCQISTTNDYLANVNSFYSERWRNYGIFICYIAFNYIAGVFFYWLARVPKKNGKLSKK
Data set [3] deals with wild type yeast. Particulars: YPD plates, growth evaluated after two days at 28° C.
In data set [4] the test system is Wild type BY-2 cells. Conditions: MSST plates, growth evaluated after 15 days at 26° C.
Data set [5] has as its system tobacco BY-2 cells. Particulars: Nicotiana tabacum.
Data set [6] concerns BY-2 cell lines expressing the different yeast Pdr5 transporters. Particulars: compared to the control GUS-expressing lines.
In data set [7] the test system is yeast AD3 strain expressing AtPDR1. Conditions: YPD plates containing the alkaloid.
In data set [8] the test system is Transgenic BY-2 cells expressing AtPDR1. Conditions: compared to the control GUS expressing line.
Data set [9] concerns BY-2 cells transformed with pK7WGD2-ScPDR5-US50. As to the kind of experiment: Hyoscyamine-induced cell death (Evans blue) in the ScPDR5-US50 line. The class given is cell-based, Nicotiana tabacum. Conditions: 30 mM hyoscyamine, US50 lines compared to GUS control line. Here is the method: FIG. 2: Hyoscyamine-induced cell death in transformed BY-2 cells. […] Cell death was assayed at two time points (6 hours and 24 hours) by Evans blue staining and is indicated as the fold increase in optical density at OD600 relative to the value at the start of the experiment. Values are the mean of three independent experiments. GUS, US50, W303 and AT represent BY-2 cell lines transformed with pK7WGD2-GUS, pK7WGD2-ScPDR5-US50, pK7WGD2-ScPDR5-W303 and pK7WGD2-AtPDR1 respectively.

SMILES strings stand for the structures.

As to `[Cl][Cd][Cl]` [CdCl2], the HmPDR1 expression entry in [1] is on record as “upregulated”.
Regarding `CC[C@]1(O)C[C@H]2CN(CCc3c([nH]c4ccccc34)[C@@](C(=O)OC)(c3cc4c(cc3OC)N(C=O)[C@H]3[C@@](O)(C(=O)OC)[C@H](OC(C)=O)[C@]5(CC)C=CCN6CC[C@]43[C@@H]65)C2)C1` [vincristine], the “substrate for Pdr5p mediated multidrug transport” value (shortened to “substrate”) in [2] is reported as “substrates”.
As to `CN1CCCC1c1cccnc1` (stereo not drawn) [nicotine], in [3], the “level tolerated by wild type yeast” value stood at 15 mM. Also, the “level tolerated without severe growth problems” value in [4] turned out to be 3000 µM. Moreover, the “level causing the death of all suspension cultured tobacco cells” value in data set [5] turned out to be 20000 µM. The “tolerance in growth performance assay” value in data set [6] was “increased tolerance”. In addition, the “growth of the pdr5 mutant strain expressing AtPDR1 on the alkaloid” value in [7] is listed as “restore the growth”. Moreover, the “tolerance of AtPDR1 transgenic BY-2 cells” value in [8] is reported as “enhanced tolerance”.
With `CC(=O)O[C@H]1C(=O)[C@@]2(C)[C@H]([C@H](OC(=O)c3ccccc3)[C@]3(O)C[C@H](OC(=O)[C@H](O)[C@@H](NC(=O)c4ccccc4)c4ccccc4)C(C)=C1C3(C)C)[C@]1(OC(C)=O)CO[C@@H]1C[C@@H]2O` [taxol], the “substrate” value in data set [2] was “substrates”.
Turning to `CC[C@]1(O)C[C@@H]2CN(CCc3c([nH]c4ccccc34)[C@@](C(=O)OC)(c3cc4c(cc3OC)N(C)[C@H]3[C@@](O)(C(=O)OC)[C@H](OC(C)=O)[C@]5(CC)C=CCN6CC[C@]43[C@@H]65)C2)C1` [vinblastine], the “substrate” value in [2] is listed as “substrates”.
For the compound `CN1[C@@H]2C[C@@H](OC(=O)[C@H](CO)c3ccccc3)C[C@H]1[C@@H]1O[C@@H]12` [scopolamine], the “level tolerated by wild type yeast” value in data set [3] is reported as 100 mM.
As for `CN1[C@@H]2CC[C@H]1C[C@@H](OC(=O)[C@H](CO)c1ccccc1)C2` [hyoscyamine], the “decrease in hyoscyamine induced cell death” value in [9] is recorded as 15%. For the same compound, in [3], the “level tolerated by wild type yeast” value was 50 mM. In addition, the “level tolerated without severe growth problems” value in [4] came out at 30000 µM. For the same compound, the “level causing the death of all suspension cultured tobacco cells” value in data set [5] was 50000 µM.
